Test: Phosphodiesterase assay using fluorescence polarization with various metallic ion salts
Type: binding
Details: FIG. 1B, 50 nM TAMRA-cGMP with PDE, 10 mM metal salt in 100 mM NaAc/HAc buffer pH 5.2 with 10 mM ZnSO4
Protocol: After one hour of incubation, the fluorescence polarization was measured using Analyst reader (Molecular Devices).

Row | Compound | fluorescence signal, indicative of binding to the PDE product
1 | [Cl][Ga]([Cl])[Cl] [GaCl3] | able to show fluorescence signal
2 | [Cl-].[Cl-].[Cl-].[In+3] [InCl3, indium chloride] | able to show fluorescence signal
